Data: patent US20040038855A1 (priority 1999, published 2004)
Where a name gives a salt, the structure may show the parent alone. Read-outs that look alike come from different tables or passages of the source.

Tests used:
[1] = target: T1, human NPY1 receptor (Homo sapiens, UniProt P25929); experiment: Binding affinity at the human NPY1 receptor
T1 construct: expressed in transfected cells
T1 sequence (P25929 1-384): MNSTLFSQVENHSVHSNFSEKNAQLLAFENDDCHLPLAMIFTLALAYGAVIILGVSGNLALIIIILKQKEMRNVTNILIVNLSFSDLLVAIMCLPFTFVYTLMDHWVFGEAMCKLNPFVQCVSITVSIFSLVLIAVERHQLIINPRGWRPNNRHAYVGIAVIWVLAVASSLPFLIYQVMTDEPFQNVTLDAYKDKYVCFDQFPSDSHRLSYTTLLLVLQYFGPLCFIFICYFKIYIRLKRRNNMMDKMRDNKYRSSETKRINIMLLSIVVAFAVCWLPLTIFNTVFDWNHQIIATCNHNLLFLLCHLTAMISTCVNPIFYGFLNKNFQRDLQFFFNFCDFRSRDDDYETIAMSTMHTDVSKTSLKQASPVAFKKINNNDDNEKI
Text: (§1) The design of such compounds can be optimized by determining their binding affinity at the recombinant MCH1, NPY1, NPY2, Gal1, Gal2, Gal3, and 5HT2C receptors. The methods to obtain the cDNA of the receptor, express said receptors in heterologous systems, and carry out assays to determine binding affinity are described in the following publications: human NPY1 (Larhammar et al., 1992), human NPY5 (U.S. Pat. No. 5,602,024, the disclosure of which is hereby incorporated by reference in its entirety into this application), human Gall (Habert-Ortoli et al., 1994), human Gal2 (Smith et al., 1997), human Gal3 (Smith et al., 1998), and rat 5HT2C (Julius et al., 1988). Additionally, the compounds would optimally not bind at the following receptors due to possible side effects: human H1 histamine and human H2 histamine receptors; human alpha-1A adrenergic, human alpha-1D adrenergic, human alpha-2A adrenergic, human alpha-2B adrenergic, and human alpha-2C adrenergic receptors; human dopamine D1, D2, D3, D4, and D5 receptors; the β-adrenoceptor; and the human 5HT1A, human 5HT1B, human 5HT1D, human 5HT1E, human 5HT1F, human 5HT2A, rat 5HT2C, human 5HT4, human 5HT6, and human 5HT7 receptors.

[2] = target: T2, human NPY5 receptor (Homo sapiens, UniProt Q15761); experiment: Binding affinity at the human NPY5 receptor
T2 construct: expressed in transfected cells
T2 sequence (Q15761 1-445): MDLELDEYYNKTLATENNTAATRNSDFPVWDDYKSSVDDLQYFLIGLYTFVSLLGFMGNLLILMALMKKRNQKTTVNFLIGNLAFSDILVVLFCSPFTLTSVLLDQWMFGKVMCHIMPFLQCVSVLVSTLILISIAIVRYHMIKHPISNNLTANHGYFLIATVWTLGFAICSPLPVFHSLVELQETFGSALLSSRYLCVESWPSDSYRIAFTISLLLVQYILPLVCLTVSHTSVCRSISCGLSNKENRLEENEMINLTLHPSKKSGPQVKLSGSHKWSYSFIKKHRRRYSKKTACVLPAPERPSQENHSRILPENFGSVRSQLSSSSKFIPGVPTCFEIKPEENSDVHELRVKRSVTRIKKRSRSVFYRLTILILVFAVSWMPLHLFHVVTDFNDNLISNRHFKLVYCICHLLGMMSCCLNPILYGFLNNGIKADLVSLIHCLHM
Text: as §1

[3] = target: T3, human GALR1 receptor (Homo sapiens, UniProt P47211); experiment: Binding affinity at the human GALR1 receptor
T3 construct: expressed in transfected cells
T3 sequence (P47211 1-349): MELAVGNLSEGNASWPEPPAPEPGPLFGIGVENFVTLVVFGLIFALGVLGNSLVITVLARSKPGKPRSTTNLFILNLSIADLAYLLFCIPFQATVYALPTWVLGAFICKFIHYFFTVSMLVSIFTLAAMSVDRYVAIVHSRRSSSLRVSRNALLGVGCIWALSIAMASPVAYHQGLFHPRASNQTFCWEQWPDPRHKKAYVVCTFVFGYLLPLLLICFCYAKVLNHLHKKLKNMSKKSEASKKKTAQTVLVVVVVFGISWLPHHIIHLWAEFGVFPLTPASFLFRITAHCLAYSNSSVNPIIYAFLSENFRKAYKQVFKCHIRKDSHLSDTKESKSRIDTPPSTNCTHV

[4] = target: T4, human GALR3 receptor (Homo sapiens, UniProt O60755); experiment: Binding affinity at the human GALR3 receptor
T4 construct: expressed in transfected cells
T4 sequence (O60755 1-368): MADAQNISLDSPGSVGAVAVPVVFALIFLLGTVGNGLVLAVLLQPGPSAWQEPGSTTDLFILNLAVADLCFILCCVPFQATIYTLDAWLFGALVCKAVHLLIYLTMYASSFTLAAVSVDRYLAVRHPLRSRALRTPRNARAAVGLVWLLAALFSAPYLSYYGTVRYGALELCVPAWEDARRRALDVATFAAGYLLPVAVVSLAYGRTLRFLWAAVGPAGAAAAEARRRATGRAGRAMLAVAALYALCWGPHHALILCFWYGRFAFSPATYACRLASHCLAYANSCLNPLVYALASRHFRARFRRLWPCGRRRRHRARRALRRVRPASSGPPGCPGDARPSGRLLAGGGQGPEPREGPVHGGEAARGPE

[5] = target: human MCH1 receptor (Homo sapiens, UniProt Q99705); experiment: Competition binding, membrane preparations of A293 cells expressing the human MCH1 receptor, [3H] Compound 10 as radioligand; design: expressed in transfected cells
Protocol: TRITIATED METHYL (4S)-3-{[(3-{4-[3-(ACETYLAMINO)PHENYL]-1-[…]}PROPYL)AMINO]CARBONYL}-4-(3,4-DIFLUOROPHENYL)-6-(METHOXYMETHYL)-2-OXO-1,2,3,4-TETRAHYDRO-5-PYRIMIDINECARBOXYLATE ([^3H] COMPOUND 10): This radiochemical synthesis was carried out by Amersham Pharmacia Biotech, Cardiff, Wales. A methanolic solution of methyl (4S)-3-({[3-(4-[3-(acetylamino)phenyl]-3,6-dihydro-1(2H)pyridinyl)propyl]amino}carbonyl)-4-(3,4-difluorophenyl)-6-(methoxymethyl)-2-oxo-1,2,3,4-tetrahydro-5-pyrimidinecarboxylate was exposed to tritium gas at 1 atmosphere pressure in the presence of 5% palladium on carbon with stirring overnight to give the tritiated methyl (4S)-3-{[(3-{4-[3-(acetylamino)phenyl]-1-piperidinyl}propyl)amino]carbonyl}-4-(3,4-difluorophenyl)-6-(methoxymethyl)-2-oxo-1,2,3,4-tetrahydro-5-pyrimidinecarboxylate ((+)-isomer) After purification by reverse phase HPLC (Hypersil ODS, 4.6×100 mm, methanol:H2O:Et3N 10:90:1 to 100:0:1 in 15 min at 1.0 mL/min, with radiochemical and UV detection), this product was used as a radioligand in the MCH1 binding assays. The same procedure was carried out with H2 gas in place of ^3H2 to afford the non-radioactive version of Compound 10.

[6] = Table 3b, A293 cell membranes, [3H] Compound 10, read-out: hMCH1* Ki

human MCH1 receptor, sequence (Q99705 whole entry): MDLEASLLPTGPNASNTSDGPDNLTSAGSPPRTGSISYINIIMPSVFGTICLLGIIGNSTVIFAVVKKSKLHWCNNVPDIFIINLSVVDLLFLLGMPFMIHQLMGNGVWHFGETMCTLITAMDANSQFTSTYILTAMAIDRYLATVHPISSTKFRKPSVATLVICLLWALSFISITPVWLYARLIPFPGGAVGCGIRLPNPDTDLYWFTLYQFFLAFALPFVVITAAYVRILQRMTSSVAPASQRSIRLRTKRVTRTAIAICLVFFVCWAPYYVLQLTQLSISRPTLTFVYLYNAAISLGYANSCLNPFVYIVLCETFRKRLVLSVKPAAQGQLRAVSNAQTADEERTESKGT

## 2-(3,4-DIFLUOROPHENYL)4,5-DIHYDROIMIDAZOLE-1-CARBOXYLIC ACID {3-[4-PHENYL-4-(4-BROMO-5-METHYLTHIOPNEN-2-YL)]-PROPYL}-AMIDE [Example 19]
[1]; Table 3a, read-out: hMPY1 Ki
  Ki: > 50 µM
[1]; Table 3b, read-out: hNPY1 Ki
  Ki: > 50 µM
[2]; Table 3a, read-out: hNPY5 Ki
  Ki: > 50 µM
[2]; Table 3b, read-out: hNPY5 Ki
  Ki: > 50 µM
[3]; Table 3a, read-out: hGALR1 Ki
  Ki: > 50 µM
[3]; Table 3b, read-out: hGALR1 Ki
  Ki: > 50 µM
[4]; Table 3a, read-out: hGALR3 Ki
  Ki: > 50 µM
[4]; Table 3b, read-out: hGALR3 Ki
  Ki: > 50 µM
[5]; [6]
  Ki: 3 nM
[5]; Table 3e, read-out: hMCH1 Ki
  Ki: 3 nM
[5]; Table 3d, read-out: hMCH1 Ki
  Ki: 3 nM

## COC(=O)C1=C(C)NC(=O)N(C(=O)NCCCN2CCC3(CC2)OCc2ccccc23)C1c1ccc2nonc2c1 (single isomer, unassigned) [Example 18, HYDROCHLORIDE]
[1]
  Ki: > 50 µM
[1]; read-out: hNPY1 Ki, Table 3b
  Ki: > 50 µM
[2]
  Ki: > 50 µM
[2]; read-out: hNPY5 Ki, Table 3b
  Ki: > 50 µM
[3]
  Ki: > 50 µM
[3]; read-out: hGALR1 Ki, Table 3b
  Ki: > 50 µM
[4]
  Ki: > 50 µM
[4]; read-out: hGALR3 Ki, Table 3b
  Ki: > 50 µM
[5]
  Ki: 4 nM

## CCC1=C(C(=O)O)C(c2ccc(F)c(F)c2)N(C(=O)NCCCN2CCC3(CC2)OCc2ccccc23)C(=O)N1 (single isomer, unassigned; (+)) [Example 4, (+)-1,2,3,6-TETRAHYDRO-1-1N-[4-(BENZO-4′,5′(H)FURAN)PIPERIDIN-1-YL]PROPYL}-CARBOXAMIDO-4-ETHYL-6-(3,4-DIFLUOROPHENYL)-2-OXO-PYRIMIDINE-5 CARBOXYLIC ACID HYDROCHLORIDE]
[1]; Table 3a, read-out: hMPY1 Ki
  Ki: > 50 µM
[1]; Table 3b, read-out: hNPY1 Ki
  Ki: > 50 µM
[2]; Table 3a, read-out: hNPY5 Ki
  Ki: > 50 µM
[2]; Table 3b, read-out: hNPY5 Ki
  Ki: > 50 µM
[3]; Table 3a, read-out: hGALR1 Ki
  Ki: > 50 µM
[3]; Table 3b, read-out: hGALR1 Ki
  Ki: > 50 µM
[4]; Table 3a, read-out: hGALR3 Ki
  Ki: > 50 µM
[4]; Table 3b, read-out: hGALR3 Ki
  Ki: > 50 µM
[5]; [6]
  Ki: 131 nM

## COCC1=C(C(=O)OC)C(c2ccc(F)c(F)c2)N(C(=O)NCCCN2CCC(c3cccc(NC(C)=O)c3)CC2)C(=O)N1 (single isomer, unassigned; (-)) [Example 1, (−)-1,2,3,6-TETRAHYDRO-1-{N-[4-(3,-ACETAMIDO)-PHENYLPIPERIDIN-1-YL]PROPYL}CARBOXAMIDO-4-METHOXYMETHYL-6-(3,4-DIFLUORO-PHENYL)-2-OXOPYRIMIDINE-5-CARBOXYLIC ACID METHYL ESTER]
[1]; Table 3a, read-out: hMPY1 Ki
  Ki: > 50 µM
[1]; Table 3b, read-out: hNPY1 Ki
  Ki: > 50 µM
[2]; Table 3a, read-out: hNPY5 Ki
  Ki: > 50 µM
[2]; Table 3b, read-out: hNPY5 Ki
  Ki: > 50 µM
[3]; Table 3a, read-out: hGALR1 Ki
  Ki: > 50 µM
[3]; Table 3b, read-out: hGALR1 Ki
  Ki: > 50 µM
[4]; Table 3a, read-out: hGALR3 Ki
  Ki: > 50 µM
[4]; Table 3b, read-out: hGALR3 Ki
  Ki: > 50 µM
[5]; [6]
  Ki: 40 nM

## CCCCN(CCCC)c1ccc(CN2CCC(CNC(=O)N3C(=O)NC(C)=C(C(=O)OC)C3c3ccc4nonc4c3)CC2)cc1 (centres unmarked) [Example 6]
[1]; Table 3a, read-out: hMPY1 Ki
  Ki: 6.67 µM
[1]; Table 3b, read-out: hNPY1 Ki
  Ki: 6.67 µM
[2]; Table 3a, read-out: hNPY5 Ki
  Ki: 4.74 µM
[2]; Table 3b, read-out: hNPY5 Ki
  Ki: 4.74 µM
[3]; Table 3a, read-out: hGALR1 Ki
  Ki: 11.1 µM
[3]; Table 3b, read-out: hGALR1 Ki
  Ki: 11.1 µM
[4]; Table 3a, read-out: hGALR3 Ki
  Ki: 21.1 µM
[4]; Table 3b, read-out: hGALR3 Ki
  Ki: 21.1 µM
[5]; [6]
  Ki: 463 nM

## COCC1=C(C(=O)OC)[C@H](c2ccc(F)c(F)c2)N(C(=O)NCCCN2CCC(c3cccc(NC(C)=O)c3)CC2)C(=O)N1 [Example 10, (+)-1,2,3,6-TETRAHYDRO-1-{N-[4-(3,-ACETAMIDO)-PHENYLPIPERIDIN-1-YL]PROPYL}CARBOXAMIDO-4-METHOXYMETHYL-6-(3,4-DIFLUORO-PHENYL)-2-OXOPYRIMIDINE-5-CARBOXYLIC ACID METHYL ESTER]
[1]; Table 3a, read-out: hMPY1 Ki
  Ki: > 50 µM
[1]; Table 3b, read-out: hNPY1 Ki
  Ki: > 50 µM
[2]; Table 3a, read-out: hNPY5 Ki
  Ki: > 50 µM
[2]; Table 3b, read-out: hNPY5 Ki
  Ki: > 50 µM
[3]; Table 3a, read-out: hGALR1 Ki
  Ki: > 50 µM
[3]; Table 3b, read-out: hGALR1 Ki
  Ki: > 50 µM
[4]; Table 3a, read-out: hGALR3 Ki
  Ki: > 50 µM
[4]; Table 3b, read-out: hGALR3 Ki
  Ki: > 50 µM
[5]; [6]
  Ki: 0.08 nM

## CCCCN(CCCC)c1ccc(CNC[C@H]2CC[C@H](NC(=O)c3cccc4ccccc34)CC2)cc1 [Example 13, N1-[4-([4-(DIBUTYLAMINO)BENZYL]AMINOMETHYL)CYCLOHEXYL]-1-NAPHTH-AMIDE]
[1]; Table 3a, read-out: hMPY1 Ki
  Ki: 9.6 µM
[1]; Table 3b, read-out: hNPY1 Ki
  Ki: 9.6 µM
[2]; Table 3a, read-out: hNPY5 Ki
  Ki: > 50 µM
[2]; Table 3b, read-out: hNPY5 Ki
  Ki: > 50 µM
[3]; Table 3a, read-out: hGALR1 Ki
  Ki: 11.3 µM
[3]; Table 3b, read-out: hGALR1 Ki
  Ki: 11.3 µM
[4]; Table 3a, read-out: hGALR3 Ki
  Ki: 5.98 µM
[4]; Table 3b, read-out: hGALR3 Ki
  Ki: 5.98 µM
[5]; [6]
  Ki: 171 nM
